Where two headings read alike, the source gives them in different places.
How the values were obtained:
IMP-1 [1] = molecular target: T1, IMP-1 (Serratia marcescens, UniProt P52699); assay: MBL inhibition, reporter substrate method, IMP-1; assay type: biochemical; settings: for inhibition at 100 µM: read-out: Inhibition of IMP-1 (dash in Ki column)
T1 construct: made in house; host or cells: E. coli BL21(DE3) derivative, pET-9a
Experimental: (§1) Compounds were prepared in DMSO at a final concentration of 50 mM prior to dilution in the assay buffer. The reaction rate was measured as the variation of absorbance observed upon substrate hydrolysis in a UV-Vis spectrophotometer or microplate reader at a wavelength of 300 nm (imipenem, meropenem), 260 nm (cefotaxime), or 482 nm (nitrocefin) and in the presence of a purified MBL enzyme (such as VIM-1, VIM-2, VIM-4, NDM-1, and IMP-1, at a final concentration ranging from 1 to 70 nM).
(§2) These enzymes were overproduced in derivatives of E. coli BL21(DE3) carrying a pET-9 a (IMP-1, VIM-1, VIM-2, and VIM-4) or pET-15 b (NDM-1) vector into which the metallo-β-lactamase-encoding open reading frame was cloned. Bacterial strains were grown in the auto-inducing medium, ZYP-5052, supplemented with 50 μg/mL kanamycin for 24 h at 37 °C [38]. IMP-1, VIM-1, VIM-2, and VIM-4 were purified by ion-exchange and gel filtration chromatography using an AKTA Purifier platform (GE Healthcare, Uppsala, Sweden) as previously described. NDM-1 (residues 37-270) was produced as an amino-terminal 6 xHis-tag fusion protein and was purified using affinity chromatography. After growth for 26 h at 25 °C, bacterial cells were harvested by centrifugation (10,000× g, 30 min, 4 °C), resuspended in 10 mM HEPES buffer (pH 7.5) containing 0.15 M NaCl (buffer A) in one-fifth of the original culture volume, and lysed by sonication. Cellular debris was removed by centrifugation (12,000× g, 40 min, 4 °C). The clarified sample was loaded on a HisTrap HP column (bed volume, 5 mL; GE Healthcare), followed by a wash step (25 mL) with buffer A containing 20 mM imidazole. Proteins were eluted using buffer A containing 350 mM imidazole. The resulting protein sample was desalted (HiPrep 26/10 Desalting column, GE Healthcare) using 20 mM triethanolamine (pH 7.2) supplemented with 50 μM ZnSO4 and concentrated using an Amicon Ultra-15 (MW cut-off, 10 kDa; Millipore, Burlington, MA, USA). The concentrated sample was loaded on a Superdex 75 prep grade column (XK16/100 column; bed volume, 140 mL; GE Healthcare) and the proteins eluted with buffer A containing 50 μM ZnSO4. The active fractions were pooled and stored at −20 °C. The purity of the protein preparations was estimated >95% by SDS-PAGE analysis. The authenticity of the enzyme preparations was confirmed by electron spray ionization mass spectrometry, as previously described.
(§3) The inhibition constants (Ki) were determined on the basis of a model of competitive inhibition by analyzing the dependence of the ratio v0/vi (v0, hydrolysis velocity in the absence of inhibitor; vi, hydrolysis velocity in the presence of inhibitor) as a function of [I] as already described. The slope of the plot of v0/vi vs. [I], which corresponds to Km^S/(Km^S + [S])Ki (where Km^S is the Km value of the reporter substrate and [S] its concentration in the reaction mixture) and allowed the calculation of the Ki value. Alternatively, a Dixon plot analysis was carried out by measuring the initial hydrolysis rates in the presence of variable concentrations of inhibitor and substrate. This allowed Ki values to be determined and supported the hypothesis that the various compounds behaved as competitive inhibitors of the various tested enzymes. The assays were performed in triplicate.

VIM-2 [2] = molecular target: T2, VIM-2 (Escherichia coli, UniProt Q5U7L7); assay: MBL inhibition, reporter substrate method, VIM-2; assay type: biochemical; settings: hydrazine and hydrazide series; read-out: Ki Value VIM-2
T2 construct: made in house; host or cells: E. coli BL21(DE3) derivative, pET-9a
Experimental: as §1, §2, §3

NDM-1 [3] = molecular target: T3, NDM-1 (Klebsiella pneumoniae, UniProt C7C422); assay: MBL inhibition, reporter substrate method, NDM-1; assay type: biochemical; settings: for inhibition at 100 µM: read-out: Inhibition of NDM-1 (dash in Ki column)
Experimental: as §1, §2, §3

VIM-1 = molecular target: T4, VIM-1 (Pseudomonas aeruginosa, UniProt A0A0F7KYQ8); assay: MBL inhibition, reporter substrate method, VIM-1; assay type: biochemical
T4 construct: made in house; host or cells: E. coli BL21(DE3) derivative, pET-9a
Experimental: as §1, §2, §3

VIM-4 [4] = molecular target: T5, VIM-4 (Pseudomonas aeruginosa, UniProt A0A0F7KYQ8, S205R); assay: MBL inhibition, reporter substrate method, VIM-4; assay type: biochemical
T5 construct: made in house; host or cells: E. coli BL21(DE3) derivative, pET-9a
Experimental: as §1, §2, §3

CphA = molecular target: T6, CphA (Aeromonas hydrophila, UniProt P26918); assay: MBL inhibition, CphA (imipenem hydrolysis); assay type: biochemical
T6 construct: made in house
Experimental: Compounds were prepared as 10 mM solutions in DMSO before dilution with appropriate buffers. Buffers were 25 mM Hepes pH 7.5 for CphA or 25 mM Hepes pH 7.5, 50 µM ZnCl2 for L1. The rates in the absence of inhibitor were not modified by addition of 1% DMSO. CphA and L1 enzymes, purified as previously described, were used at concentrations between 0.2 and 0.8 nM, respectively. The enzyme and the inhibitor (100 µM) were pre-incubated for 30 min in a volume of 495 µL at room temperature. The hydrolysis of a solution of 100 µM imipenem for CphA was monitored by following the absorbance variation at 300 nm using a Specord 50 PLUS spectrophotometer (Analytik Jena, Jena, Germany). For L1, the reporter substrate was nitrocefin (100 µM). The enzyme activity was measured by following the absorbance variation at 482 nm. The substrate hydrolysis was done at 30 °C. The activity was tested by measuring the initial rates in three samples without inhibitor that allowed to determine the percentage of residual β-lactamase activity in the presence of inhibitors. […] The Hanes linearization of the Henri–Michaelis equation was used, and Ki was calculated on the basis of the following equation, v = (Vmax.S)/[S + Km(1 + I/Ki)]. […]

L1 = molecular target: T7, L1 (Stenotrophomonas maltophilia, UniProt P52700); assay: MBL inhibition, L1 (nitrocefin hydrolysis); assay type: biochemical; settings: for inhibition at 100 µM: 100 μM inhibitor, read-out: Inhibition of L1 (dash)
T7 construct: made in house
Experimental: Compounds were prepared as 10 mM solutions in DMSO before dilution with appropriate buffers. Buffers were 25 mM Hepes pH 7.5 for CphA or 25 mM Hepes pH 7.5, 50 µM ZnCl2 for L1. The rates in the absence of inhibitor were not modified by addition of 1% DMSO. CphA and L1 enzymes, purified as previously described, were used at concentrations between 0.2 and 0.8 nM, respectively. The enzyme and the inhibitor (100 µM) were pre-incubated for 30 min in a volume of 495 µL at room temperature. The hydrolysis of a solution of 100 µM imipenem for CphA was monitored by following the absorbance variation at 300 nm using a Specord 50 PLUS spectrophotometer (Analytik Jena, Jena, Germany). For L1, the reporter substrate was nitrocefin (100 µM). The enzyme activity was measured by following the absorbance variation at 482 nm. The substrate hydrolysis was done at 30 °C. The activity was tested by measuring the initial rates in three samples without inhibitor that allowed to determine the percentage of residual β-lactamase activity in the presence of inhibitors. If the residual activity in the presence of 100 µM inhibitor was <30%, the initial rate conditions were used to study the inhibition in the presence of increasing concentrations of compounds (from 1 to 100 µM) and to determine the competitive inhibition constant Ki. The Hanes linearization of the Henri–Michaelis equation was used, and Ki was calculated on the basis of the following equation, v = (Vmax.S)/[S + Km(1 + I/Ki)]. The assays were performed in triplicates.

[5] = system: E. coli LZ2310(pLBII-VIM-2); assay: microbe, parasite or virus in culture; assay type: cell-based, Escherichia coli; settings: for Restoration of cefoxitin activity (in words): 30 μg cefoxitin disk, compound 1 at 48 μg, EUCAST clinical breakpoints; for zone of inhibition at 40 µg/disc / zone of inhibition at 120 µg/disc: Escherichia coli, read-out: Inhibition Zone Diameter
Experimental: (§4) The potential activity of selected compounds was assessed by the agar disk-diffusion method, according to the CLSI (Clinical Laboratory Standard Institute) recommendations, using Mueller–Hinton medium. The inhibitor (dissolved in DMSO) was added (maximum volume of 15 μL) to a commercially available disk containing a defined amount of a β-lactam antibiotic (30 μg of cefoxitin (Oxoid, Milan, Italy)). After incubation (18 h at 35 °C), the diameter of the growth inhibition zone was measured and compared to that obtained in the absence of inhibitor. DMSO and EDTA (220 μg) were used as negative and positive controls, respectively. Experiments were performed in triplicate.
These tests were performed on an isogenic laboratory strain obtained after transforming Escherichia coli LZ2310 strain with a derivative of the high copy number plasmid pLB-II carrying the cloned blaVIM-2 gene harboring a cloned gene encoding the functional metallo-β-lactamase. Strain LZ2310 is a triple knockout mutant derived from K12 in which the genes encoding for components of the three major efflux pump systems were inactivated (genotype, ∆norE ∆mdfA N43 acrA1) and was used to generate an hyperpermeable background for MBL production and investigate the potential contribution of such mechanisms to inhibitor efflux.

[6] = system: VIM-4-producing laboratory strain; assay: Disk diffusion on VIM-4-producing laboratory strain; assay type: cell-based
Experimental: as §4

IMP-1 [7] = molecular target: T1, IMP-1; set-up: method as in PMID 32937203; settings: in parentheses; 100 μM inhibitor; cited from earlier work
VIM-2 [8] = molecular target: T2, VIM-2; settings: Schiff base analogs; read-out: Ki Value VIM-2, hydrazone-like compound (converted); cited from earlier work
NDM-1 [9] = molecular target: T3, NDM-1; set-up: method as in PMID 32937203; settings: Schiff base analogs; read-out: Ki Value NDM-1, hydrazone-like compound (converted); cited from earlier work
VIM-4 [10] = molecular target: T5, VIM-4; set-up: method as in PMID 32937203; settings: Figure 1; read-out: Ki VIM-4, Schiff base; cited from earlier work
[11] = read-out: Inhibition of VIM-1 (dash)

T7 sequence (P52700 34-290): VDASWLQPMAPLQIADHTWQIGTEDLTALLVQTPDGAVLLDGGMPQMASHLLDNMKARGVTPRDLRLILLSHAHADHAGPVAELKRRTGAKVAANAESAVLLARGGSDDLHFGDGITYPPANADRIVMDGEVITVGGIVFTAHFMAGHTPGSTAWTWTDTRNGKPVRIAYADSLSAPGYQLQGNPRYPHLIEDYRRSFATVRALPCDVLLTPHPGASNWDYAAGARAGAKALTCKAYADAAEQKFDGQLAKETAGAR
T1 sequence (P52699 19-246 limits assumed): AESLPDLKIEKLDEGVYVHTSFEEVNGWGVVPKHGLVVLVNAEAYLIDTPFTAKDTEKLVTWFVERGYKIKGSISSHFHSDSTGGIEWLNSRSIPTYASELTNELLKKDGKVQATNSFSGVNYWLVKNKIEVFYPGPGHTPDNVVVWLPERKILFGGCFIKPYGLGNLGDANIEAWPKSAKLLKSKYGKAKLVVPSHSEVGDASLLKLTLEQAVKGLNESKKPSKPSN
T3 sequence (C7C422 37-270 limits assumed): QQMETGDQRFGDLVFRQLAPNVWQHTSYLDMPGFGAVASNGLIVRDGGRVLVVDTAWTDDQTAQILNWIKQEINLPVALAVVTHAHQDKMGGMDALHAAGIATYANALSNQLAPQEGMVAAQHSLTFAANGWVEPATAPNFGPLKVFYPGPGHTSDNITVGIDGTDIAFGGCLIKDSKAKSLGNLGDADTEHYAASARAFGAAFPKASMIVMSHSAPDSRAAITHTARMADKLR
T6 sequence (P26918 28-254): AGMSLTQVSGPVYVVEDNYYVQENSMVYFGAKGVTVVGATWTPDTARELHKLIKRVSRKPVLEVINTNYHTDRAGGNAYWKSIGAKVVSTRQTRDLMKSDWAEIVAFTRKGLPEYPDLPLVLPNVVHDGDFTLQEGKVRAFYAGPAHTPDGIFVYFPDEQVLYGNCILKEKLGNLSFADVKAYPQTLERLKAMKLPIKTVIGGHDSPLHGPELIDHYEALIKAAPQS

Row | SMILES | inhibition at 100 µM (IMP-1 [1]) | Ki (VIM-2 [2]) | inhibition at 100 µM (NDM-1 [3]) | inhibition at 100 µM (VIM-1; [11]) | Ki (VIM-4 [4]) | Restoration of cefoxitin activity (in words) [5] | zone of inhibition at 40 µg/disc [5] | Ki (VIM-1) | zone of inhibition at 120 µg/disc [5] | inhibition at 100 µM (L1) | also measured
1 | Cc1ccccc1-c1n[nH]c(=S)n1NCc1ccccc1C(=O)O [Compound 2] | < 40% | 8 ± 0.7 µM | < 40% | < 30% | 10 ± 1 µM | did not show any remarkable activity | 11 mm |  |  |  | Ki (CphA): 100 ± 10 µM; Ki (L1): 110 ± 10 µM
2 | O=C(O)c1ccccc1CNn1c(-c2cccc(-c3ccccc3)c2)n[nH]c1=S [Compound 3] |  | 0.24 ± 0.02 µM |  |  | 0.57 ± 0.03 µM | devoid of activity |  | 3.6 ± 0.2 µM | 11 mm |  | Ki (IMP-1 [1]; hydrazine series, read-out: Ki Value IMP-1): 76 ± 13 µM; Ki (NDM-1 [3]; hydrazine series, read-out: Ki Value NDM-1): 8.2 ± 0.7 µM; Restoration of β-lactam activity (in words) [6]: lack of restoration activity
3 | O=C(O)c1ccccc1CNn1c(-c2ccc3ccccc3c2)n[nH]c1=S [Compound 4] | < 40% | 4.2 ± 0.9 µM | < 40% |  | 6.3 ± 0.7 µM | did not show any remarkable activity |  |  | 10 mm | < 30% | inhibition at 100 µM (VIM-1; read-out: Percentage of Inhibition at 100 μM Inhibitor, VIM-1): 32%
4 | O=C(O)c1ccccc1CNn1c(Cc2ccccc2)n[nH]c1=S [Compound 6] | < 40% | 8.5 ± 2.3 µM | < 40% | < 30% |  | did not show any remarkable activity | 10 mm |  |  | < 30% | inhibition at 100 µM (VIM-4 [4]; read-out: Inhibition of VIM-4 (dash)): < 30%
5 | O=C(O)c1ccccc1CNn1c(Cc2ccc3ccccc3c2)n[nH]c1=S [Compound 7] | < 40% | 1.8 ± 0.2 µM | < 40% |  | 4.7 ± 0.3 µM | did not show any remarkable activity |  | 19.5 ± 1.3 µM | 11 mm |  | 
6 | O=C(O)c1ccccc1/C=N/n1c(-c2ccccc2)n[nH]c1=S [JMV4390] |  |  |  |  |  |  |  |  |  |  | Inhibition of IMP-1 (dash in Ki column), corresponding hydrazone-like compound (IMP-1 [7]): -^2 (-) (<40% of inhibition in the presence of 100 μM inhibitor); Ki (VIM-2 [8]): 2.7 µM; Ki (NDM-1 [9]): 38 µM; Ki (VIM-4 [10]): 1.4 µM

Source: PMC7465886, “4-(N-Alkyl- and -Acyl-amino)-1,2,4-triazole-3-thione Analogs as Metallo-β-Lactamase Inhibitors: Impact of 4-Linker on Potency and Spectrum of Inhibition” (Biomolecules, 2020)
